In patent US6391879B1, “Therapeutic anti-fungal nail preparation” (Astan, Inc., priority 1998, dated 2002):

Tested on: fungi in Onychomycosis and tinea pedis
Assay: Tolnaftate solution concentration sufficient to kill the fungi
Conditions: used in a penetrating base
Text: Tolnaftate USP (known by the trade name Tinactin ™) is a white crystalline powder that has been used as a primary agent in anti-fungal preparations. […] Other anti-fungal agents effective in fighting the fungi causing Onychomycosis and tinea pedis and suitable for use in the present invention are: Clotrimazole, Tioconazole, Nystatin, Terconazole, Butoconazole Nitrate, Unecylenic Acid, Clioquinol, Ciclopirox, Olamine, Econazole Nitrate, Triacetin, Miconazole, Flucytosine, and Ketoconazole.

Cc1cccc(N(C)C(=S)Oc2ccc3ccccc3c2)c1 [Tolnaftate]
solution concentration sufficient to kill the fungi: 1%
